Results on one molecule are retold here after paper PMC7179450, “Primary Human Hepatocytes, But not HepG2 or Balb/c 3T3 Cells, Efficiently Metabolize Salinomycin and Are Resistant to Its Cytotoxicity” (Molecules, 2020).

In series [1] the test system is HepG2 cells. The series can be described thus: TPC assay in HepG2. Type of series: cell-based, human. The note with it: for EC50: Homo sapiens, read-out: EC50 (effective concentration). The procedure:
(§1) The HepG2 cell line was purchased from the American Type Culture Collection (ATCC® HB-8065™). The cells were cultured in Minimum Essential Medium Eagle (MEME) (Sigma–Aldrich Co. (St. Louis, MO, USA)). Normal murine embryonic fibroblasts, Balb/c 3T3 clone A31 cell line (gift from Department of Swine Diseases of the National Veterinary Research Institute in Pulawy) was cultured in Dulbecco’s Modified Eagle’s Medium (DMEM) (Invitrogen Corporations (Paisley, UK)). The media were supplemented with 10% BCS (Balb/c 3T3), 10% FBS (HepG2), 1% L-glutamine, and 1% antibiotic solution. The cells were maintained in 75 cm^2 cell culture flasks in humidified incubator at 37 °C, in an atmosphere of 5% CO2. The medium was refreshed every two or three days and the cells were trypsinized by 0.25% trypsin–0.02% EDTA after reaching 70–80% confluence. The initial cell viability was determined with the trypan blue exclusion test. Single cell suspensions were prepared and adjusted to a density of 2 × 10^5 cell/mL (HepG2) and 1 × 10^5 cell/mL (Balb/c 3T3). The cell suspension was transferred to 96-well plates (100 µL/well) and incubated for 24 h before exposure to the studied drugs.
(§2) The concentration ranges of the drugs were chosen according to their solubility and their plasma level. Each drug was dissolved in DMSO. The final concentration of DMSO was 0.1% or 0.2% in the medium for both samples and corresponding controls. […] All drug solutions in medium were freshly prepared and protected from light. SAL was tested in seven concentrations from 0.39 to 25 µg/mL. Tiamulin was added in two concentrations (1 and 10 µg/mL) or just one concentration (1 µg/mL) to cell lines or human hepatocytes, respectively. […] The cytotoxicity was assessed after 24 and 48 h of exposure of cell lines or after 12 and 24 h exposure of PHH. […]
(§3) The assay was based on staining total cellular protein [14]. […] The absorbance was measured at 595 nm in a microplate reader using blank as a reference. Cytotoxicity was expressed as a percentage of the negative control (0.1% or 0.2% DMSO).

The test system of series [2] is turkeys. The note with it: cited from earlier work.
In series [3] the test system is primary human hepatocytes (PHH). The series can be described thus: LDH leakage assay in primary human hepatocytes. Type of series: cell-based. The note with it: Hepatocyte, mean ± SEM, n = 3, read-out: EC50 (effective concentration). The procedure: Cryopreserved PHH were purchased from the Primacyt GmbH (Schwerin, Germany). Two different lots were chosen based on CYP activity. The donor was a person. The post-thaw viability was 94.6% for lot HH160531 (used in two repetitions) and 85.0% for lot HH130805. The initial cell viability was determined with the trypan blue exclusion test. The cells were thawed and purified using the Plating and Thawing Kit (Primacyt GmbH). Purified hepatocytes were resuspended in Hepatocyte Plating Medium (Primacyt GmbH) and seeded on collagen-coated 96-well plates at a density of 9 × 10^5 cell/mL and incubated at 37 °C with 5% CO2. After 6 h of incubation, the medium was removed and the cells were washed with PBS. Then Human Hepatocyte Maintenance Medium (HHMM) (Primacyt GmbH) with the studied drugs was added to hepatocytes (100 µL/well). […]
(§4) The concentration ranges of the drugs were chosen according to their solubility and their plasma level. […] The cytotoxicity was assessed after 24 and 48 h of exposure of cell lines or after 12 and 24 h exposure of PHH. […]
(§5) The integrity of the plasma membrane was assessed through the test of lactate dehydrogenase (LDH) release, which was monitored using a commercially available Cytotoxicity Detection Kit (LDH) (Roche Diagnostics, Basel, Switzerland). […] The absorbance was measured at 492 nm in a microplate reader using a blank as a reference.

In series [4] the test system is Balb/c 3T3 cells. The series can be described thus: NRU assay in Balb/c 3T3. Format: cell-based, mouse. The note with it: for EC50: Mus musculus, read-out: EC50 (effective concentration). As for the experimental part: as §1
The concentration ranges of the drugs were chosen according to their solubility and their plasma level. Each drug was dissolved in DMSO. The final concentration of DMSO was 0.1% or 0.2% in the medium for both samples and corresponding controls. […] All drug solutions in medium were freshly prepared and protected from light. SAL was tested in seven concentrations from 0.39 to 25 µg/mL. […] The cytotoxicity was assessed after 24 and 48 h of exposure of cell lines or after 12 and 24 h exposure of PHH. […]
The assay, based on staining of living cells by neutral red (NR), was performed according to the protocol described by Borenfreund and Puerner. […] After 10 min of shaking, the absorbance of the dissolved NR was measured at 540 nm using a blank as a reference. Cytotoxicity was expressed as a percentage of the negative control (0.1% or 0.2% DMSO).

Series [5] has as its system horses. The note with it: cited from earlier work.
Series [6] relates to primary human hepatocytes (PHH). The series can be described thus: TPC assay (total protein content) in primary human hepatocytes. Type of series: cell-based. The note with it: Hepatocyte, mean ± SEM, n = 3, read-out: EC50 (effective concentration). As for the experimental part:
Cryopreserved PHH were purchased from the Primacyt GmbH (Schwerin, Germany). Two different lots were chosen based on CYP activity. The donor was a person. The post-thaw viability was 94.6% for lot HH160531 (used in two repetitions) and 85.0% for lot HH130805. The initial cell viability was determined with the trypan blue exclusion test. The cells were thawed and purified using the Plating and Thawing Kit (Primacyt GmbH). Purified hepatocytes were resuspended in Hepatocyte Plating Medium (Primacyt GmbH) and seeded on collagen-coated 96-well plates at a density of 9 × 10^5 cell/mL and incubated at 37 °C with 5% CO2. After 6 h of incubation, the medium was removed and the cells were washed with PBS. Then Human Hepatocyte Maintenance Medium (HHMM) (Primacyt GmbH) with the studied drugs was added to hepatocytes (100 µL/well). The culture conditions were kept according to the manufacturer’s protocol.
The concentration ranges of the drugs were chosen according to their solubility and their plasma level. Each drug was dissolved in DMSO. […] The cytotoxicity was assessed after 24 and 48 h of exposure of cell lines or after 12 and 24 h exposure of PHH. […]
as §3

For series [7] the following is noted: in vivo; cited from earlier work.
The test system of series [8] is HepG2 cells. The series can be described thus: LDH leakage assay in HepG2. Type of series: cell-based. The note with it: Homo sapiens, mean ± SEM, n = 3, read-out: EC50 (effective concentration). As for the experimental part: as §1, with “The medium was refreshed every two or three days and the cells were trypsinized by 0.25% trypsin–0.02% EDTA after reaching 70–80% confluence.” left out, “Single cell suspensions were prepared and adjusted to a density of 2 × 10^5 cell/mL (HepG2) and 1 × 10^5 cell/mL (Balb/c 3T3). The cell suspension was transferred to 96-well plates (100 µL/well) and incubated for 24 h before exposure to the studied drugs.” left out
as §4, §5
In general terms: LDH in the medium is a marker of cell lysis.

Series [9] has as its system Balb/c 3T3 cells. The series can be described thus: TPC assay in Balb/c 3T3. Format: cell-based, mouse. The note with it: for EC50: Mus musculus, read-out: EC50 (effective concentration). The procedure: as §1, §2, §3
Series [10] has as its system cell lines. The note with it: cited from earlier work.
Series [11] concerns rats. The note with it: cited from earlier work.
[12] abbreviates: Balb/c 3T3, 24 h, SAL alone or in both drug combinations (Figure S3).

Take `CC[C@@H](C(=O)[C@@H](C)[C@@H](O)[C@H](C)[C@@H]1O[C@@H]([C@@H](CC)C(=O)O)CC[C@@H]1C)[C@H]1O[C@]2(C=C[C@@H](O)[C@]3(CC[C@@](C)([C@H]4CC[C@](O)(CC)[C@H](C)O4)O3)O2)[C@H](C)C[C@@H]1C` [SAL, salinomycin]: the “lowest concentration with significant effect on total protein content” value in [1] (HepG2, 24 h, SAL alone or in both drug combinations (Figure S2)) was 0.39 µg/mL; in series [9] (setting [12]) it was 0.39 µg/mL. Further, the EC50 in series [1] (HepG2, 24 h) was 13.3 ± 2.5 µg/mL; in [1] (HepG2, 48 h), 11.3 ± 1.3 µg/mL; in [3] (12 h exposure), 12.9 ± 3.2 µg/mL; in [3] (24 h exposure), 11.3 ± 0.7 µg/mL; in series [4] (BALB/c3T3, 24 h), 0.6 ± 0.2 µg/mL; in series [4] (BALB/c3T3, 48 h), less than 0.39 µg/mL. Besides, the EC50 in series [6] (12 h exposure) was greater than 25 µg/mL; in series [6] (24 h exposure), greater than 25 µg/mL; in series [8] (24 h exposure), greater than 25 µg/mL; in [8] (48 h exposure) it was 13.8 ± 0.2 µg/mL; in [9] (BALB/c3T3, 24 h) it was 7.9 ± 1.1 µg/mL; in [9] (BALB/c3T3, 48 h), 1.4 ± 0.5 µg/mL. The EC50 in series [10] is 0.1 to 30 µM. The figures for the LD50 in series [2], in series [5] and in [11] were 0.6 mg/kg b.w, 0.6 mg/kg b.w and 50 mg/kg b.w, respectively. Moreover, in series [4] (setting [12]), the “lowest concentration with significant effect on lysosomal activity” value came out at 0.39 µg/mL. In addition, in [7], the “unchanged SAL in excreta, share of administered dose” value was 2%. The “EC50 values, cytotoxicity to cell lines” value in [10] was 0.08 to 22.5 µg/mL.
